Key:
[1] = tested on: ImKCs; details: dose- and time-dependent
Procedure: Total protein lysates were isolated from either mouse ImKCs with or without DPI treatment for 6 and 12 hrs or human primary macrophages with or without DPI treatment for 12 hrs at the indicated concentrations. Equal amounts of total proteins from whole-cell lysates were subjected to Western blotting analysis. β-actin was used as a loading control. Shown are representative data of two independent experiments. […] P values were calculated by student t-test. * P<0.05, ** P<0.01. n.s. not significant.
Proteins were extracted from cells with RIPA buffer. Protein concentration was quantified by BCA Protein Assay Kit (Pierce Biotechnology). Samples containing 20 μg total protein were resolved on a 10% SDS-PAGE gel and electro-transferred onto a PVDF membrane (Millipore Corporation). The membrane was blocked in 5% (w/v) fat-free milk in PBST (PBS containing 0.1% Tween-20). […] The blot was washed twice in PBST and then incubated with anti-Rabbit HRP-conjugated secondary antibody (Cell Signaling Technology, 1:2000) in 5% fat-free milk. The membrane was washed twice in PBST and subjected to protein detection by ECL Plus Western Blotting Detection System (GE Healthcare) before being exposed to a Kodak BioMax XAR film.

[2] = tested on: human Kupffer cells from NAFLD patients; details: 500 nM, ex vivo, 24 hours
Procedure: CD14^+ KCs were sorted from single cell suspension of NAFLD human liver biopsies (n=2) and treated with DMSO or DPI (500 nM) for 24 hrs, followed by RNAseq to quantify gene expression.
Human liver biopsies were obtained from livers procured from deceased donors deemed unacceptable for liver transplantation. Samples were collected with appropriate institutional ethics approval from The First Affiliated Hospital of Jilin University. All experiments were performed in accordance with the relevant guidelines and regulations. In addition, written informed consent was obtained from each subject. During organ retrieval, donor liver grafts were perfused in situ with cold (HTK) solution (Methapharm) to thoroughly flush out circulating cells, leaving only tissue resident cells that are then used to prepare a single-cell suspension to isolate immune cells. The unused liver caudate lobe post liver transplantation was collected and flushed with HBS+EGTA at 4° C. to remove any non-liver resident cells. Single-cell isolation from the resected caudate lobe was performed with a modified two-step collagenase procedure (MacFarland et al. 2017 ACnano). Single cell suspension was stained with anti-CD45 to sort all immune cells for scRNAseq or anti-CD14 to sort KCs for in vitro treatment by flow cytometry (BD Aria).
RNAs were extracted with RNeasy MinElute Kit (Qiagen), converted into cDNA and sequenced using Next-Generation Sequencing (Illumina). RNA-seq data were aligned to the human genome (version hg19) and raw counts of each genes of each sample were calculated with bowtie2 2.2.3 (Langmead et al. 2009) and RSEM 1.2.15 (Li et al. 2011). Differential expression analysis was performed using the program edgeR at P<0.05 with a two-fold change (Robinson et al. 2010). The gene expression level across different samples was normalized and quantified using the function of cpm. DEGs were annotated using online functional enrichment analysis tool DAVID (Huang et al. 2007). […]

[3] = tested on: hMDMs; assay: RNA-seq transcriptional response of hMDMs (GSEA, GO enrichment); assay type: cell-based, human; details: hMDMs, 2.5 μM, 24 hours
Procedure: Duplicate hMDM samples were treated with 2 M2-activating and 6 M1-activating compounds as well as IL-4 and IFNγ for 24 hrs. Gene expression levels were measured by RNA-seq separately. GSEA preranked analysis was performed based on the whole genome gene list ranked on gene expression changes using a gene set of 49 transcriptional modules in response to 29 stimuli in hMDMs. bosut.: bosutinib; alster.: alsterpaullone; mocet.: mocetinostat; thios.: thiostrepton; niclo.: niclosamide; chlor.: chlorhexidine; fenb.: fenbendazole; fluvo.: fluvoxamine. […] Duplicate hMDM samples were stimulated with each ligand and analyzed by RNA-seq separately.
DEGs were identified by edgeR at P<0.05 with at least 2 fold-change.
RNAs were extracted with RNeasy MiniElute kit (Qiagen), converted into cDNA and sequenced using Next-Generation Sequencing (Illumina). […] Differential expression analysis was performed using the program edgeR at P<0.05 with a 2 fold-change. The gene expression level across different samples was normalized and quantified using the function of cpm. Differentially expressed genes were annotated using online functional enrichment analysis tool DAVID (http://david.ncifcrf.gov/). Gene set enrichment analysis were performed with GSEA with FDR q-value<0.05.
Fresh hMDMs were treated with compounds at the EC for 24 hours, followed by RNA-seq.

[4] = Macrophage numbers and gut bacterial counts in non-tumor bearing mice; assay type: in vivo, mouse
Procedure: (n=3). Shown are representative F4/80 versus CD11b staining profiles gating on CD45+ cells. I.P.: intraperitoneal injection; S.C.: paratumor subcutaneous injection. […] Data shown are mean±s.d. n.s., not significant by T-test.
Next, we examined whether thiostrepon has anti-tumor effect in vivo through activating macrophages. B16F10 melanoma cells were injected subcutaneously into syngeneic C57BL/6 mice. 6 and 12 days later, tumor-bearing mice were treated with either vehicle (DMSO), melanoma specific antibody TA99, thiostrepton, or combination of TA99 and thiostrepton by intraperitoneal injection (I.P.). […] Since thiostrepton inhibits cell proliferation and is an antibiotic, to exclude its systematic effects on immune cells and on gut microbiome, tumor-bearing mice were treated by para-tumor subcutaneous injection (S.C.) with a lower dose of thiostrepton (20 mg/kg). […] Consistently, more abundant macrophages were stained positive for F4/80 by immunochemistry in tumor sections from mice treated with thiostrepton or thiostrepton plus TA99 than mice treated with vehicle or T99 (FIG. 6E).

[5] = tested on: mouse BMMs with anti-CD20 labelled human B lymphoma cells (GMB); assay: ADCP of mouse macrophages; assay type: cell-based; parameters: dose or concentration left out as unconfirmed; details: co-culture 2 hrs
Procedure: Conditioned medium (CM) was collected and filtered. B16F10 melanoma cells were cultured for 12 hrs with CM or CM heat-inactivated at 95° C. for 5 min. The number of tumor cells were quantified by flow cytometry. Data were summarized from two independent experiments. * P<0.05 by T-test. P values are shown based on t-test. […] Mouse BMMs (FIG. 14B) or hMDM (FIG. 14C) were treated with […] thiostrepton for 24 hrs, then co-cultured with equal number of eFluro670 and anti-CD20 labelled human B-cell lymphoma cells for 2 hrs, and analyzed by flow cytometry. Macrophages that have phagocytosed tumor cells are identified as efluro670+ and CD14+. Shown are representative eFluro670 histograms gating on CD14+ macrophages from three different experiments.
To examine whether thiostrepton-activating macrophages or conditioned medium have effects on tumor cell growth, BMMs were treated with thiostrepton for 24 hrs. Equal numbers of primed BMMs and melanoma cells (B16F10) were co-cultured for 12 hrs. […] Thiostrepton elevated ADCP of both human and mouse macrophages (FIGS. 14B-14C).

[6] = tested on: luciferase-expressing human B lymphoma cells (GMB); assay: Human B lymphoma (GMB-luc) model in NSG mice; assay type: in vivo, mouse
Procedure: NSG mice were grafted with 1×10^7 GMB-luc cells and dosed twice at 14 and 21 days later with 0.5 mg/kg Rituximab (Ritu) and/or 300 mg/kg thiostrepton (Thio). Tumor burden was monitored (FIG. 18A) and quantified (FIG. 18B) by imaging the luciferase activity in vivo (n=5˜6 mice per group). Data are shown as mean±s.e.m. At day 28 post tumor engraftment, bone marrow cells were analyzed by flow cytometry (FIG. 18C). Shown are representative F4/80 versus CD11b staining profiles gating on CD45^+ cells (top panel), Ly6C versus Ly6G staining profiles gating on F4/80^+CD11b^+ cells (bottom panel). MHCII histograms gating on macrophages from FIG. 18C. […] Data shown are mean±s.d. * P<0.05, ** P<0.01 and *** P<0.001, by T-test.
For the melanoma model, an inoculum of 1×10^6 B16F10 tumor cells was injected subcutaneously on the flank of 8- to 10-week-old male B6 mice in […] sterile PBS. Six days following tumor inoculation, mice were randomized into 4 treatment groups including control (PBS or DMSO), tumor-targeting antibody TA99, compound, compound plus TA99. TA99 was administered at […] per dose intraperitoneally (I.P.). The compound was administrated at the indicated dosage by either I.P. or paratumor injection subcutaneously (S.C.). All mice were dosed at day 6 and day 12 post tumor inoculation for a total of 2 treatments. Tumor size was measured as an area (longest dimension×perpendicular dimension) at day 6, day 12 and day 18 post tumor inoculation. Mice were euthanized for analysis at day 18 post tumor inoculation. For the lymphoma model, 1×10^7 GMB cells were injected through tail intravenously in 100 μL sterile PBS into 10- to 12-week-old male NSG mice. Mice were treated two weeks post tumor cell engraftment. Tumor-targeting antibody Rituxumab (InvivoGen) was administered at 10 mg/kg intraperitoneally. The compound was administrated I.P. at the indicated dosage. All mice were dosed at week 2 and week 3 post tumor injection for a total of 2 treatments. […]

c1ccc2c(c1)[I+]c1ccccc1-2 [Diphenyleneiodonium chloride]
HK, GAPDH, LDHA and enolase at the protein level [1]: upregulation | expression of DAM markers APOE, CLEC10A, TREM2 and C1QA [2]: downregulated | expression of genes associated with chemokine-mediated signaling, chemotaxis and inflammatory response [2]: suppressed | expression of glycolytic genes [2]: upregulated

C=C(NC(=O)C(=C)NC(=O)c1csc(C2=N[C@@H]3c4csc(n4)[C@H]4NC(=O)c5csc(n5)[C@H]([C@](C)(O)[C@@H](C)O)NC(=O)[C@H]5CSC(=N5)/C(=C/C)NC(=O)[C@H]([C@@H](C)O)NC(=O)c5csc(n5)[C@]3(CC2)NC(=O)[C@H](C)NC(=O)C(=C)NC(=O)[C@H](C)NC(=O)[C@H]([C@@H](C)CC)N[C@@H]2C=Cc3c([C@H](C)O)cc(nc3[C@H]2O)C(=O)O[C@@H]4C)n1)C(N)=O [Thiostrepton]
expression of M2 chemokine CCL24 [3]: down-regulate | expression of proinflammatory cytokines TNFα and IL-1β [3]: polarized to express | total bacterial counts in the gut ([4]; both dosing strategies): did not change | macrophages in the spleen and bone marrow ([4]; intraperitoneal administration): increased numbers | macrophage numbers ([4]; subcutaneous administration): did not have significant effects | ADCP [5]: elevated | tumor burden in the bone marrow ([6]; alone, 300 mg/kg, luciferase imaging): significantly reduced | tumor burden in the bone marrow, with rituximab ([6]; together with rituximab, luciferase imaging): significantly reduced | F4/80+CD11b+ macrophages with higher MHCII in bone marrow ([6]; vs vehicle or rituximab): higher percentages

— US20250262167A1, “COMPOUNDS, TARGETS AND PATHWAYS FOR MACROPHAGE MODULATION” (Massachusetts Institute of Technology, priority 2020, published 2025)
